Test results as given in ChEMBL document CHEMBL1201862, “PubChem BioAssay data set” (2004).
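How tested: cells in 96-well plates exposed to compound for 48 hours at five concentrations. GI50 is the concentration that inhibits growth by half.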 Calls of active or inactive are those of the source. Rule as the data show it: active = GI50 up to about 1.1 µM and inactive = higher. Residues, ends and D or L forms follow the SMILES beside them. *: point of attachment. Fmoc = O=C(OCC1c2ccccc2-c2ccccc21)*; Boc = CC(C)(C)OC(=O)*

Columns and labels:
Test in all cases: DTP human tumour cell line panel, 48 h
KM12 = tested on: KM12
UACC-62 = tested on: UACC-62
UO-31 = tested on: UO-31
NCI-H522 = tested on: NCI-H522
SK-MEL-2 = tested on: SK-MEL-2
MOLT-4 = tested on: MOLT-4
IGROV-1 = tested on: IGROV-1
SR = tested on: SR
SN12C = tested on: SN12C
TK-10 = tested on: TK-10
MDA-MB-231 = tested on: MDA-MB-231
A549 = tested on: A549
SF-268 = tested on: SF-268
SNB-75 = tested on: SNB-75
Malme-3M = tested on: Malme-3M
MDA-MB-435 = tested on: MDA-MB-435
NCI-H226 = tested on: NCI-H226
OVCAR-3 = tested on: OVCAR-3
OVCAR-5 = tested on: OVCAR-5
HT-29 = tested on: HT-29

| SMILES | GI50 (KM12) | GI50 (UACC-62) | GI50 (UO-31) | GI50 (NCI-H522) | GI50 (SK-MEL-2) | GI50 (MOLT-4) | GI50 (IGROV-1) | GI50 (SR) | GI50 (SN12C) | GI50 (TK-10) | GI50 (MDA-MB-231) | GI50 (A549) | GI50 (SF-268) | GI50 (SNB-75) | GI50 (Malme-3M) | GI50 (MDA-MB-435) | GI50 (NCI-H226) | GI50 (OVCAR-3) | GI50 (OVCAR-5) | GI50 (HT-29) |
| --- | --- | --- | --- | --- | --- | --- | --- | --- | --- | --- | --- | --- | --- | --- | --- | --- | --- | --- | --- | --- |
| Cc1cc(SCC(=O)c2ccccc2)nc2ccccc12 | > 100 µM (inactive) | > 100 µM (inactive) | 73.5 µM (inactive) | 53.7 µM (inactive) | > 100 µM (inactive) | > 100 µM (inactive) | > 100 µM (inactive) | > 100 µM (inactive) | > 100 µM (inactive) | > 100 µM (inactive) | > 100 µM (inactive) | 67.1 µM (inactive) | 55.8 µM (inactive) | 36.7 µM (inactive) | > 100 µM (inactive) | > 100 µM (inactive) | > 100 µM (inactive) | 41.2 µM (inactive) | 72.9 µM (inactive) | 40.1 µM (inactive) |
| CC(NNC(=O)c1ccncc1)c1ccc(Cl)c(Cl)c1 (stereo not given) | > 100 µM (inactive) | > 100 µM (inactive) | 54.6 µM (inactive) | > 100 µM (inactive) | > 100 µM (inactive) | 48.9 µM (inactive) | > 100 µM (inactive) | 60.8 µM (inactive) | > 100 µM (inactive) | > 100 µM (inactive) | > 100 µM (inactive) | > 100 µM (inactive) | > 100 µM (inactive) | > 100 µM (inactive) | > 100 µM (inactive) | > 100 µM (inactive) | > 100 µM (inactive) | > 100 µM (inactive) | > 100 µM (inactive) | > 100 µM (inactive) |
| CC(C)(C)OC(=O)NCCCCC(NC(=O)C(Cc1c[nH]c2ccccc12)NC(=O)OCC1c2ccccc2-c2ccccc21)C(=O)N1CCCC1C(=O)NCC(N)=O (stereo not given) (Fmoc-WK(Boc)PG-NH2; configuration not given here) | > 100 µM (inactive) | > 100 µM (inactive) | > 100 µM (inactive) | > 100 µM (inactive) | > 100 µM (inactive) | > 100 µM (inactive) | > 100 µM (inactive) | > 100 µM (inactive) | > 100 µM (inactive) | > 100 µM (inactive) | 42.5 µM (inactive) | > 100 µM (inactive) | > 100 µM (inactive) | > 100 µM (inactive) | > 100 µM (inactive) | > 100 µM (inactive) | > 100 µM (inactive) | > 100 µM (inactive) | > 100 µM (inactive) | > 100 µM (inactive) |
| C/C(=N\Nc1ccc2ccccc2n1)c1ccccc1O | > 100 µM (inactive) | > 100 µM (inactive) | 70.8 µM (inactive) | > 100 µM (inactive) | > 100 µM (inactive) | 4.69 µM (inactive) | > 100 µM (inactive) | 3.15 µM (inactive) | > 100 µM (inactive) | > 86.3 µM (inactive) | > 83 µM (inactive) | > 100 µM (inactive) | 24.5 µM (inactive) | < 0.01 µM (active) | > 100 µM (inactive) | > 100 µM (inactive) | > 90.2 µM (inactive) | 2.13 µM (inactive) | > 100 µM (inactive) | 8.15 µM (inactive) |
| C=C1CC(C)(COc2ccc3c(C)c(Cl)c(=O)oc3c2)OC1=O (stereo not given) | 3.65 µM (inactive) | 1.39 µM (inactive) | 3.34 µM (inactive) | 0.632 µM (active) | 1.44 µM (inactive) | 1.05 µM (active) | 1.76 µM (inactive) | 0.865 µM (active) | 5.07 µM (inactive) | 0.942 µM (active) | 3.53 µM (inactive) | 11.1 µM (inactive) | 3.52 µM (inactive) | 2.02 µM (inactive) | 1.9 µM (inactive) | 2.97 µM (inactive) | 2.83 µM (inactive) | 2.89 µM (inactive) | 4.23 µM (inactive) | 0.984 µM (active) |
| CN1C(=O)C(=CNc2ccccc2Cl)C(=O)N(C)C1=O | > 100 µM (inactive) | > 100 µM (inactive) | > 100 µM (inactive) | > 100 µM (inactive) | 19.2 µM (inactive) | 22.6 µM (inactive) | > 100 µM (inactive) | 19.4 µM (inactive) | > 100 µM (inactive) | > 100 µM (inactive) | > 100 µM (inactive) | 21.7 µM (inactive) | > 100 µM (inactive) | > 100 µM (inactive) | > 100 µM (inactive) | > 100 µM (inactive) | > 100 µM (inactive) | 15.2 µM (inactive) | 24.8 µM (inactive) | > 100 µM (inactive) |
| CCOC1c2cc(OC)c(OC)cc2-c2ccc3ccccc3c2N1C (stereo not given) | 2.66 µM (inactive) | 12.6 µM (inactive) | 44.6 µM (inactive) | 3.02 µM (inactive) | 13.9 µM (inactive) | 4.43 µM (inactive) | 19.2 µM (inactive) | 7.78 µM (inactive) | 7.76 µM (inactive) | 31.6 µM (inactive) | 13.5 µM (inactive) | 5.62 µM (inactive) | 2.05 µM (inactive) | 11.8 µM (inactive) | 9.16 µM (inactive) | 13.8 µM (inactive) | 19.2 µM (inactive) | 11.5 µM (inactive) | 21.8 µM (inactive) | 10.9 µM (inactive) |
